Counter-ions that a name gives are not always drawn.
Assays:
[1] = target: T1, dopamine D4 receptors in cloned human dopamine receptor subtype 4.2 membranes (Homo sapiens, UniProt P21917, DEL265-296); experiment: 3H-YM-09151-2 binding; conditions: 3H-YM-09151-2, cloned human D4.2 membranes
T1 construct: purchased Dupharma A/S, Denmark CRM-016
T1 sequence (P21917 with tags, fused parts or gaps DEL265-296): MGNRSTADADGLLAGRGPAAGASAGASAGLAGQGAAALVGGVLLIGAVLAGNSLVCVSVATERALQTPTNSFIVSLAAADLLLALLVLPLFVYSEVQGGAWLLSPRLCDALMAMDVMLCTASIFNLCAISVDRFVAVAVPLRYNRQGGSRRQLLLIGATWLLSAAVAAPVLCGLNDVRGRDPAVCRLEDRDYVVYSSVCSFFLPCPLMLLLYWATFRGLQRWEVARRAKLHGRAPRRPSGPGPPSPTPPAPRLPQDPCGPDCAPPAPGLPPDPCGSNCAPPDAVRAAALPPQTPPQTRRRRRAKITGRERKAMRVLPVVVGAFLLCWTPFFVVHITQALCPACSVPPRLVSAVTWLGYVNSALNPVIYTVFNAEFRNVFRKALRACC
Protocol: By this method the inhibition by drugs of the binding of the dopamine D4 antagonist ^3H-YM-09151-2 to dopamine D4 receptors in cloned human dopamine receptor subtype 4.2 membranes is determined in vitro. Accordingly, this is a test for affinity for dopamine D4 receptors. The test is performed using a preparation of cloned dopamine D4 cell membranes CRM-016®, Dupharma A/S, Denmark, in accordance with the product specifications.

Compound	IC50 [1] [nM]	further results
c1ccc2c(c1)CCC2CN1CCN(c2ccc3c(c2)OCO3)CC1 (centres unmarked) [Compound 4a]	8.8	–
c1ccc2c(c1)CCC2CCN1CCN(c2ccc3c(c2)OCO3)CC1 (centres unmarked) [Compound 6a, 1-[2-[4-(3,4-Methylenedioxyphenyl)-piperazine-1-yl]ethyl]-indane]	5.6	–
c1ccc2c(c1)CCC2CCN1CCN(c2ccc3c(c2)OCO3)CC1 (centres unmarked) (as salt: fumarate) [Compound 6a, 1-[2-[4-(3,4-Methylenedioxyphenyl)-piperazine-1-yl]ethyl]-indane]	–	melting point: 191 to 192 °C
c1ccc2c(c1)CC(CN1CCN(c3ccc4c(c3)OCO4)CC1)C2 [Compound 6b]	1.8	–
Brc1ccc2c(c1)C(CN1CCN(c3ccc4c(c3)OCO4)CC1)CC2 (centres unmarked) [Compound 4b]	–	% inhibition of binding at 50 nM ([1]; at 50 nM): 33% at 50 nM
c1ccc2c(c1)CC(CN1CCN(c3ccc4c(c3)OCO4)CC1)C2 (as salt: oxalate) [Compound 6b]	–	melting point: 197 to 199 °C

Now from value to compound, other results behind:

IC50 [1] [nM]	Compound	further results
4.3	O=C(CCCN1CCN(c2ccc3c(c2)OCO3)CC1)C1CNc2ccccc21 (centres unmarked) [Compound 9a, 2,3-Dihydro-3-[4-[4[(3,4-methylenedioxyphenyl)piperazine-1-yl]butyl-1-oxo]]-1H-indole]	–
3.7	CC(=O)N1CC(CCN2CCN(c3ccc4c(c3)OCO4)CC2)c2ccccc21 (centres unmarked) [Compound 9b, 1-Acetyl-2,3-dihydro-3-[2-[4-[(3,4-methylenedioxyphenyl)piperazine-1-yl]ethyl]]1H-indole]	–

Reference: patent US6436940B1, “Indane or dihydroindole derivatives” (H. Lundbeck A/S, priority 1996, dated 2002)
